Several values for one entry are separate records, joined by “and”; a condition that tells them apart may be missing. Equal values may be shown once. Where a name gives a salt, the structure may show the parent alone.
Each compound was assayed on ATF4 translation (ATF4 pathway), SH-SY5Y-ATF4-NanoLuc cells (assay: ATF4 cell based assay (ATF4 5'-UTR NanoLuc luciferase reporter, Thapsigargin induced cellular stress)). Settings: SH-SY5Y-ATF4-NanoLuc cells challenged with Thapsigargin for 14-18 hours; average of two or more experimental runs; read-out: average ATF4 pathway inhibitory activity (IC50).
Source text: The ATF4 reporter assay measures the effect of Thapsigargin induced cellular stress on ATF4 expression. For this reporter assay, a stable cell line was created by transfecting SH-SY5Y cells with a plasmid containing the NanoLuc® luciferase gene fused to the 5′-UTR of ATF4, under the control of the CMV promoter. The ATF4 5′-UTR contains two open reading frames which mediate the cellular stress-dependent translation of the reporter gene. Clones stably expressing the reporter construct were isolated and selected based on the luminescence response to thapsigargin and inhibition of this signal by test compounds. Briefly, SH-SY5Y-ATF4-NanoLuc cells were challenged with Thapsigargin for 14-18 hours to determine the stress effect with or without test compounds.
Cells were propagated in growth media consisting of 90% DMEM F12 (InVitrogen #11320-033), 10% Fetal Bovine Serum (Gibco #10438-026), 5 mM Glutamax (Gibco #35050-061), 5 mM Hepes, (Gibco #15630-080), and 0.5 mg/ml Geneticin (Gibco #10131-027). Cells were prepared for the assay by removing all media from cells, washing the plated cells with phosphate buffered saline, and detached by adding a solution comprised of 10% Tryple express solution (InVitrogen12604-021) and 90% enzyme-free cell dissociation buffer HANKS base (Gibco 13150-016). The trypsin was deactivated by adding assay media comprised of 90% phenol-red free DMEM F12 (InVitrogen, 11039), 10% Fetal Bovine Serum (Gibco #10438-026), (5 mM Glutamax (Gibco #35050-061), 5 mM Hepes, (Gibco #15630-080), and 0.5 mg/ml Geneticin (Gibco #10131-027). Suspended cells were spun down at 300 g for 5 min, the supernatant was removed and the cell pellet was suspended in warm media (30-37° C.) comprised as above at (1e6 cell/ml).
Assay plates were prepared by adding 250 nL of compound stock solution in 100% DMSO to each well, followed by dispensing 20 microliters/well cell suspension to deliver 15-20 k cell/well. Cells were incubated for 1 hour at 37° C. Then, 5 μL of 1.5 μM or 1 μM of Thapsigargin (final concentration: 200-300 nM) was added to each well of cells. Assay plates containing cells were incubated for 14-18 hours at 37° C.
The measurement of luciferase produced by the ATF4 constructs was measured as follows. Aliquots of the Nano-Glo reagent (Nano-Glo® Luciferase Assay Substrate, Promega, N113, Nano-Glo® Luciferase Assay Buffer, Promega, N112 (parts of Nano-Glo® Luciferase Assay System, N1150) were brought to room temperature, the substrate and buffer were mixed according to manufacturer's instructions. The cell plates were equilibrated to room temperature. 25 microliters/well of the mixed Nano-Glo reagent were dispensed into assay wells and pulse spun to settle contents and the plate was sealed with film. The plates were incubated at room temperature for 1 hour before detecting luminescence on an Envision plate reader.
Compounds of the invention are tested for activity against ATF4 translation in the above assay.
Work on O=C(COc1ccc(Cl)cc1)N1CCC2(CCN(C(=O)COc3ccc(Cl)cc3)C2)C1 [Example 26, 1,1′-(2,7-diazaspiro[4.4]nonane-2,7-diyl)bis(2-(4-chlorophenoxy)ethanone)] yielded an IC50 of 1000 to 10000 nM. CC1C[C@H](CNC(=O)COc2ccc(Cl)cc2)CN1CCCOc1ccc(Cl)cc1 (stereo partly drawn) [Example 58, 2-(4-chlorophenoxy)-N-(((3R)-1-(3-(4-chlorophenoxy)propyl)-5-methylpyrrolidin-3-yl)methyl)acetamide] showed an IC50 of 101 to 1000 nM. In the case of O=C(COc1ccc(Cl)cc1)NCC1CCN(CCCOc2ccc(Cl)c(F)c2)C1 (stereo not drawn) [Example 64, N-((1-(3-(4-chloro-3-fluorophenoxy)propyl)pyrrolidin-3-yl)methyl)-2-(4-chlorophenoxy)acetamide], the IC50 is reported as 101 to 1000 nM and 127 nM. In the case of Cc1cc(OCCCN2CCC(CNC(=O)COc3ccc(Cl)cc3)C2)ccc1Cl (stereo not drawn) [Example 57, N-((1-(3-(4-chloro-3-methylphenoxy)propyl)pyrrolidin-3-yl)methyl)-2-(4-chlorophenoxy)acetamide], the IC50 is reported as under 100 nM. With Cc1cc(OCC(=O)NCC2CCN(CCCOc3ccc(Cl)cc3)C2)ccc1Cl (stereo not drawn) [Example 47, 2-(4-chloro-3-methylphenoxy)-N-((1-(3-(4-chlorophenoxy)propyl)pyrrolidin-3-yl)methyl)acetamide] the IC50 was under 100 nM. CC1(CNC(=O)COc2ccc(Cl)cc2)CCN(CCOc2ccc(Cl)cc2)C1 (stereo not drawn) [Example 43, 2-(4-chlorophenoxy)-N-((1-(2-(4-chlorophenoxy)ethyl)-3-methylpyrrolidin-3-yl)methyl)acetamide] showed an IC50 of under 100 nM. In the case of O=C(COc1ccc(Cl)cc1)NC[C@H]1CCN(CCCOc2ccc(Cl)cc2)C1 [Example 73, (R)-2-(4-chlorophenoxy)-N-((1-(3-(4-chlorophenoxy)propyl)pyrrolidin-3-yl)methyl)acetamide], the IC50 is reported as under 100 nM. Compound CC1(CNC(=O)COc2ccc(Cl)cc2)CCN(C(=O)COc2ccc(Cl)cc2)C1 (stereo not drawn) [Example 17, 2-(4-chlorophenoxy)-N-((1-(2-(4-chlorophenoxy)acetyl)-3-methylpyrrolidin-3-yl)methyl)acetamide] has an IC50 of 1000 to 10000 nM. Work on O=C(COc1ccc(Cl)cc1)NC1[C@H]2CN(C(CCOc3ccc(Cl)cc3)C(=O)O)C[C@@H]12 (stereo partly drawn) [Example 82, 4-(4-chlorophenoxy)-2-((1R,5S)-6-(2-(4-chlorophenoxy)acetamido)-3-azabicyclo[3.1.0]hexan-3-yl)butanoic acid hydrochloride] yielded an IC50 of under 100 nM. O=C(COc1ccc(Cl)cc1)NCC1CCN(C(=O)OCCc2ccc(Cl)cc2)C1 (stereo not drawn) [Example 15, 4-chlorophenethyl 3-((2-(4-chlorophenoxy)acetamido)methyl)pyrrolidine-1-carboxylate] was tested, and the IC50 was under 100 nM. Work on O=C(COc1ccc(Cl)cc1)NOC1CCN(C(=O)CCOc2ccc(Cl)cc2)C1 (stereo not drawn) [Example 35, 2-(4-chlorophenoxy)-N-((1-(3-(4-chlorophenoxy)propanoyl)pyrrolidin-3-yl)oxy)acetamide] yielded an IC50 of under 100 nM. O=C(COc1ccc(Cl)c(F)c1)NCC1CCN(CCCOc2ccc(Cl)cc2)C1 (stereo not drawn) [Example 55, 2-(4-chloro-3-fluorophenoxy)-N-((1-(3-(4-chlorophenoxy)propyl)pyrrolidin-3-yl)methyl)acetamide] was tested, and the IC50 was under 100 nM. In the case of O=C(COc1ccc(Cl)cc1)NC1C[C@@H]2CN(C(=O)COc3ccc(Cl)cc3)CC12 (stereo in doubt) [Example 32, 2-(4-chlorophenoxy)-N-((1S,5R)-3-(2-(4-chlorophenoxy)acetyl)-3-azabicyclo[3.2.0]heptan-6-yl)acetamide], the IC50 is reported as under 100 nM. Compound CN(Cc1ccc(Cl)cc1)C(=O)N1CCC(CNC(=O)COc2ccc(Cl)cc2)C1 (stereo not drawn) [Example 79, N-(4-chlorobenzyl)-3-((2-(4-chlorophenoxy)acetamido)methyl)-N-methylpyrrolidine-1-carboxamide] has an IC50 of under 100 nM. Compound O=C(COc1ccc(Cl)cc1)N1CCC(CNCCOc2ccc(Cl)cc2)C1 (stereo not drawn) [Example 21, 2-(4-chlorophenoxy)-1-(3-(((2-(4-chlorophenoxy)ethyl)amino)methyl)pyrrolidin-1-yl)ethanone] has an IC50 of 101 to 1000 nM.
